Results taken from patent US20220054477A1, “INDUCTION OF SUSTAINED LOCAL INFLAMMATION” (Ascendis Pharma Oncology Division A/S, priority 2019, published 2022).

Legend:
[1] = system: CD8+ T cells; assay: Flow cytometry of tumor draining lymph nodes: frequency of CD8+ T cells of CD3+ T cells (Example 15); type: in vivo, BALB/C mice; settings: 7 days after randomization
Description: Hydrogels were administered as suspension in PTP buffer. Some cohorts were further treated with 20 μg human IL-2 (Peprotech, Rocky Hill, N.J.), intraperitoneally (I.P.), twice a day for 5 days. Mice were sacrificed 7 days after randomization (D0). Following sacrifice, tumor draining lymph nodes were isolated from both flanks and were dissociated mechanically to generate a single cell suspension at a cell concentration of 1×10^6 cells per sample. Cell suspensions were centrifuged at 300 g for 5 minutes. Supernatants were discarded and cells were resuspended in FACS buffer with 1 μg/ml Fc-Block and incubated at 4° C. for 10 minutes in the dark. Surface marker antibody mixtures (antibody concentration: 10 μg/mL) in FACS buffer were added to each sample and samples were incubated in the dark at 4° C. for 30 minutes. Cells were centrifuged at 300 g for 5 minutes and supernatants were discarded. Cells were washed and then resuspended with FACS buffer before cytometer collection.
After collection, FACS data was analyzed using FlowJo Version 10.6.1. Compensation was digitally adjusted using single antibody-stained beads. Samples with less than 90% viability, as determined by LiveDead cell staining, were excluded from the analysis. […]

[2] = set-up: species or system WISTAR rats; settings: rat, in vivo, sc, 25 ug
Description: Hydrogels were suspended (ca. 6% wt/v) PBST buffer at pH 7.4. […] Blood samples were withdrawn and used for plasma generation over the course of 28 d. […] Plasma concentration profiles were generated and analyzed with Phoenix WinNonlin software (Certara, Princeton, N.J., USA).

[3] = system: Tnf; assay: PBMC gene expression (qPCR, 6 hours post-treatment): Tnf (Example 17); type: in vivo, BALB/C mice
Description: Hydrogels were administered as suspensions in PTP buffer. […] Tumors were excised, weighed and snap frozen.
For PBMC isolations, approximately 600 μl of whole blood was collected via cardiac puncture. The collected whole blood from each individual mouse was diluted with a 1:1 ratio of pre-warmed PBS supplemented with 2% Fetal Bovine Serum (FBS). Then an equal volume of Histopaque-1083 was added to a new sterile 15 mL conical tube, where the diluted whole blood was layered over the Histopaque-1083. The mixture was then centrifuged at 400 g for 30 minutes. […]
Lysates from untreated control samples and 6 hour treated samples were thawed and RNA was isolated using the RNeasy Mini Kit (QIAGEN) following manufacturer's recommendations. […] RNA concentrations were measured using a NanoDrop (ThermoFisher) and then adjusted to […] with RNase-free water. RNA quality was assessed using a NanoDrop (ThermoFisher). […] 200 ng of cDNA was used for quantitative PCR using the RT^2 SYBR Green ROX qPCR Master mix (2×) kit (QIAGEN) following manufacturer's recommendations. […]
Cycle thresholds (CT) were collected using a 384-well platform ABI-7900H real-time qPCR system (Applied Biosystems). […] 2^ΔΔCT values were calculated with the following formula: […]
For each gene, 3 technical replicates were analyzed per biological replicate. Undetermined technical replicate CT values were recorded as zero ΔCT values. […]

Resiquimod [Compound 4]
Frequency of CD8+ T cells of CD3+ T cells, Mean ([1]; injected right flank tumor): 29.23%
Frequency of CD8+ T cells of CD3+ T cells, Mean ([1]; uninjected left flank tumor): 29%
AUCPred-∞ [2]: 65.4 ng·h/mL
Cmax [2]: 23.1 ng/mL
t1/2 (biphasic), first value [2]: 1.5 h
t1/2 (biphasic), second value [2]: 10 h
Tnf Mean (2^ΔΔCT) [3]: 4.64
Tnf Fold change (4/13i) ([3]; ratio of 4 to 13i): 4.45
